The target in this assay is T1, melatonin ML1A receptor (Homo sapiens, UniProt P48039).
T1 construct: expressed in transfected cells; membrane homogenates
Kind of assay: Melatonergic binding (2-[125I]-iodomelatonin, membrane homogenates of NIH-3T3 cells expressing ML1A receptor). The conditions noted are these: 37° C. for 1 hour, NIH-3T3 cell membranes, read-out: IC50, binding affinity for melatonin receptors. From the text:
The compounds of the invention are melatonergic agents. […] Further, the compounds are agonists as determined by their ability, like melatonin, to block the forskolin-stimulated accumulation of cAMP in certain cells. Due to these properties, the compounds and compositions of the invention should be useful as sedatives, chronobiotic agents, anxiolytics, antipsychotics, analgesics, and the like. Specifically, these agents should find use in the treatment of stress, sleep disorders, seasonal depression, appetite regulation, shifts in circadian cycles, melancholia, jet-lag, glaucoma, reproductive disorders, cancer, premenstrual syndrome, immune disorders, inflammatory diseases, neuroendocrine disorders and related conditions.
The melatonergic binding properties of compounds of the invention were measured using the following procedure.
(a) TME=50 mM Tris buffer containing 12.5 mM MgCl2, and 2 mM EDTA, pH 7.4 at 37° C. with concentrated HCl.
(b) Wash buffer: 20 mM Tris base containing 2 mM MgCl2. pH 7.4 at room temperature.
(c) 10^-4 M melatonin (10^-5 M final concentration).
(d) 2-[^125 I]-iodomelatonin, […] final concentration.
The melatonin ML1A receptor cDNA was subcloned into pcDNA3 and introduced into NIH-3T3 cells using Lipofectamine. […]

T1 sequence (P48039 whole entry): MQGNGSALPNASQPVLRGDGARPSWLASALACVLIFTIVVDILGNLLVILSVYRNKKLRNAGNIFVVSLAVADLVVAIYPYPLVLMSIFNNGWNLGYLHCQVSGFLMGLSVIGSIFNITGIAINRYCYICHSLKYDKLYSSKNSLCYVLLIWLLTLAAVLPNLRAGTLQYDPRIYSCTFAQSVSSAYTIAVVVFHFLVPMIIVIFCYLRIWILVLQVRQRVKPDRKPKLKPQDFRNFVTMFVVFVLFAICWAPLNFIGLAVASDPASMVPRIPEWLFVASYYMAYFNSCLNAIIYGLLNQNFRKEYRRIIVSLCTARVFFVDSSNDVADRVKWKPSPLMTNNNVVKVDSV

The IC50 is the concentration needed to halve the response being measured. For the molecule `CCC(=O)NCCC1c2ccccc2-c2ccc3c(c21)CCO3` (centres unmarked) [Example 1, N-[2-(2,10-dihydro-1H-fluoreno[2,1-b]furan-10-yl)ethyl]propanamide], the IC50 is under 25 nM.
The value for `CCC(=O)NCCC1c2cc(OC)ccc2-c2ccc3c(c21)OCO3` (centres unmarked) [Example 2, N-[2-(8-Methoxy-10H-fluoreno[1,2-d]-1,3-dioxol-10-yl)ethyl]propanamide] was under 25 nM.
